Read-outs that look alike come from different tables or passages of the source. One block for each compound: values may come before it.
Columns and labels:
[1] = log P determination by HPLC (EEC Directive 79/831 Annex V.A8); type: physicochemical
Protocol: The measurements were carried out using an Agilent 1100 LC system with a 50*4.6 Zorbax Eclipse C18 1.8 μm column (oven temperature 55° C., flow rate 2.0 ml/min).
The following mobile phases were used:
Mobile phase A: acetonitrile+1000 μl of formic acid/l
Mobile phase B: Millipore water+900 μl of formic acid/l

[2] = test system: caterpillars of the armyworm (Spodoptera frugiperda); assay: Spodoptera frugiperda test (SPODFR spray treatment); type: in vivo; conditions: Spodoptera frugiperda, foliar, read-out: effect in % (caterpillars killed)
Excerpt: (§1) Solvent: 78.0 parts by weight of acetone

[3] = test system: green peach aphid (Myzus persicae); assay: Myzus test (MYZUPE spray treatment); type: in vivo; conditions: Myzus persicae, foliar, read-out: effect in % (aphids killed)
Excerpt: Solvent: 78 parts by weight of acetone
as §1

[4] = test system: larvae of the mustard beetle (Phaedon cochleariae); assay: Phaedon test (PHAECO spray treatment); conditions: Phaedon cochleariae, in Brassica rapa, foliar, read-out: effect in % (beetle larvae killed)
[5] = reversed-phase HPLC, Zorbax Eclipse C18 column, by HPLC according to EEC Directive 79/831 Annex V.A8, read-out: log P
[6] = application rate 100 g/ha, maize leaf discs
[7] = application rate 100 g/ha, Chinese cabbage leaf discs

chromatographic logP [1, 5]: 4.25
Structure (SMILES): Cc1cc(I)cc(C(=O)NC(C)(C)C)c1NC(=O)c1cc(Cn2nnc(C(F)(F)F)n2)nn1-c1ncccc1C(F)(F)F [Example 242]
pest or weed control at 100 g/ha [2, 6]: ≥ 80%
pest or weed control at 100 g/ha [3, 7]: ≥ 80%
pest or weed control at 100 g/ha [4]: ≥ 80%

chromatographic logP [1, 5]: 4
Structure (SMILES): Cc1cc(Cl)cc(C(=O)NC(C)(C)C)c1NC(=O)c1cc(Cn2nnc(C(F)(F)F)n2)nn1-c1ncccc1C(F)(F)F [Example 224]
pest or weed control at 100 g/ha [2, 6]: ≥ 80%
pest or weed control at 100 g/ha [3, 7]: ≥ 80%
pest or weed control at 100 g/ha [4]: ≥ 80%

chromatographic logP [1, 5]: 3.25
Structure (SMILES): Cc1cc(Cl)cc(C(=O)NC2CC2)c1NC(=O)c1cc(Cn2nnc(C(F)(F)F)n2)nn1-c1ncccc1Br [Example 335]
pest or weed control at 100 g/ha [2, 6]: ≥ 80%
pest or weed control at 100 g/ha [3, 7]: ≥ 80%
pest or weed control at 100 g/ha [4]: ≥ 80%

Structure (SMILES): O=C(NCC1CC1)c1cc(Cl)cc(Cl)c1NC(=O)c1cc(Cn2nnc(C(F)F)n2)nn1-c1ncccc1Cl [Example 289]
chromatographic logP ([1]; log P): 3.01
pest or weed control at 100 g/ha ([2]; in Zea mays): ≥ 80%
pest or weed control at 100 g/ha ([3]; in Brassica rapa): ≥ 80%
pest or weed control at 100 g/ha [4]: ≥ 80%

Structure (SMILES): CNC(=O)c1cc(Cl)cc(C)c1NC(=O)c1cc(Cn2nnc(C(F)F)n2)nn1-c1ncccc1Cl [Example 255]
chromatographic logP ([1]; log P): 2.46
pest or weed control at 100 g/ha ([2]; in Zea mays): ≥ 80%
pest or weed control at 100 g/ha ([3]; in Brassica rapa): ≥ 80%
pest or weed control at 100 g/ha [4]: ≥ 80%

Structure (SMILES): Cc1cc(Cl)cc(C(N)=O)c1NC(=O)c1cc(Cn2nnc(C(F)(C(F)(F)F)C(F)(F)F)n2)nn1-c1ncccc1Cl [Example 360]
chromatographic logP ([1]; log P): 3.46
pest or weed control at 100 g/ha ([2]; in Zea mays): ≥ 80%
pest or weed control at 100 g/ha ([3]; in Brassica rapa): ≥ 80%
pest or weed control at 100 g/ha [4]: ≥ 80%

chromatographic logP ([1]; reversed-phase HPLC, Zorbax Eclipse C18 column, determined by HPLC according to EEC Directive 79/831 Annex V.A8, read-out: log P): 3.47
Structure (SMILES): Cc1cc(C#N)cc(C(=O)NC(C)(C)C)c1NC(=O)c1cc(Cn2nnnc2C(F)(F)C(F)(F)F)nn1-c1ncccc1Br [Example 518]
pest or weed control at 100 g/ha [2, 6]: ≥ 80%
pest or weed control at 100 g/ha [3, 7]: ≥ 80%
pest or weed control at 100 g/ha [4]: ≥ 80%

chromatographic logP [1, 5]: 3.88
Structure (SMILES): Cc1cc(Cl)cc(C(=O)NC(C)(C)C)c1NC(=O)c1cc(Cn2nnc(C(F)(F)F)n2)nn1-c1ncccc1Br [Example 329]
pest or weed control at 100 g/ha [2, 6]: ≥ 80%
pest or weed control at 20 g/ha ([3]; application rate 20 g/ha, Chinese cabbage leaf discs): ≥ 80%
pest or weed control at 100 g/ha [4]: ≥ 80%

Structure (SMILES): Cc1cc(C#N)cc(C(=O)NC(C)C2CC2)c1NC(=O)c1cc(Cn2nnc(C(F)(F)F)n2)nn1-c1ncccc1Cl (stereo not drawn) [Example 20]
chromatographic logP ([1]; log P): 3.33
pest or weed control at 100 g/ha ([2]; in Zea mays): ≥ 80%
pest or weed control at 100 g/ha ([3]; in Brassica rapa): ≥ 80%
pest or weed control at 100 g/ha [4]: ≥ 80%

Structure (SMILES): C#CC(C)NC(=O)c1cc(C#N)cc(C)c1NC(=O)c1cc(Cn2nnc(C(F)(F)F)n2)nn1-c1ncccc1Cl (stereo not drawn) [Example 432]
chromatographic logP ([1]; log P): 2.97
pest or weed control at 100 g/ha ([2]; in Zea mays): ≥ 80%
pest or weed control at 100 g/ha ([3]; in Brassica rapa): ≥ 80%
pest or weed control at 100 g/ha [4]: ≥ 80%

Structure (SMILES): Cc1cc(C#N)cc(C(=O)NC(C)(C)C)c1NC(=O)c1cc(Cn2nnnc2C(F)(F)C(F)(F)F)nn1-c1ncccc1Cl [Example 446]
chromatographic logP ([1]; log P): 3.47
pest or weed control at 100 g/ha ([2]; in Zea mays): ≥ 80%
pest or weed control at 100 g/ha ([3]; in Brassica rapa): ≥ 80%
pest or weed control at 100 g/ha [4]: ≥ 80%

Structure (SMILES): CNC(=O)c1cc(Br)cc(C)c1NC(=O)c1cc(Cn2nnc(C(F)F)n2)nn1-c1ncccc1Cl [Example 296]
chromatographic logP ([1]; log P): 2.61
pest or weed control at 100 g/ha ([2]; in Zea mays): ≥ 80%
pest or weed control at 100 g/ha ([3]; in Brassica rapa): ≥ 80%
pest or weed control at 100 g/ha [4]: ≥ 80%

Structure (SMILES): C=C(C)CNC(=O)c1cc(Cl)cc(C)c1NC(=O)c1cc(Cn2nnc(C(F)(F)F)n2)nn1-c1ncccc1Cl [Example 337]
chromatographic logP ([1]; log P): 3.62
pest or weed control at 100 g/ha ([2]; in Zea mays): ≥ 80%
pest or weed control at 100 g/ha ([3]; in Brassica rapa): ≥ 80%
pest or weed control at 100 g/ha [4]: ≥ 80%

Structure (SMILES): N#CCNC(=O)c1cc(Cl)cc(Cl)c1NC(=O)c1cc(Cn2nnc(C(F)(F)F)n2)nn1-c1ncccc1Cl [Example 59]
chromatographic logP ([1]; log P): 2.92
pest or weed control at 100 g/ha ([2]; in Zea mays): ≥ 80%
pest or weed control at 100 g/ha ([3]; in Brassica rapa): ≥ 80%
pest or weed control at 100 g/ha [4]: ≥ 80%

Structure (SMILES): Cc1cc(Br)cc(C(=O)NC2CC2)c1NC(=O)c1cc(Cn2nnc(C(F)F)n2)nn1-c1ncccc1Cl [Example 298]
chromatographic logP ([1]; log P): 2.85
pest or weed control at 100 g/ha ([2]; in Zea mays): ≥ 80%
pest or weed control at 100 g/ha ([3]; in Brassica rapa): ≥ 80%
pest or weed control at 100 g/ha [4]: ≥ 80%
